# Measured values as given in patent US11883517B2, “External dermal composition and method for beautifying skin” (National Tsing Hua University, priority 2021, dated 2024).
# Test system: EpiDerm™ SIT (EPI-200)
# Assay: Skin irritation test, OECD 439
# Details: test group 50 μM, positive control 5% solution, average of 3 repeats
# Method: In the present evaluation, the EpiDerm™ SIT (EPI-200) was used for skin irritation tests following the OECD 439 test guidelines.
# In the skin irritation test, the double nitrosyl-iron complex at a concentration of 50 μM was used as the test group, Dulbecco's Phosphate-Buffered Saline (DPBS) was used as the negative control group, and 5% of sodium dodecyl sulfate (SDS) solution was used as a positive control group. The test was repeated 3 times, and the average value was used for evaluation.
compound,measurement,value
"CCCCCCCCCCCCOS(=O)(=O)[O-].[Na+] [sodium dodecyl sulfate (SDS), sodium dodecyl sulfate]",tissue survival rate,15.11%
